Results as given in publication PMC13198257, “An aerosolized dual-action autotaxin inhibitor-PPARγ agonist for the treatment of pulmonary fibrosis” (Cell Reports Medicine, 2026).

Test system: lung gene expression
Test: RNA sequencing of lung tissue (BLM/EL244 vs BLM)
Assay type: in vivo, mouse
Settings: lung tissue, BLM/EL244 vs BLM
Procedure: RNA quality was assessed using an Agilent TapeStation 4150 with the High Sensitivity […] ScreenTape (Agilent), according to the manufacturer’s protocols. For library preparation, the QuantSeq 3’mRNA-Seq Library Prep Kit (Lexogen) was used according to manufacturer’s instructions. Briefly, 500 ng of RNA from each sample was used for first-strand synthesis, followed by RNA template removal, and second-strand synthesis initiated by random primers. In-line barcodes were introduced at this step, and this was followed by magnetic bead-based purification. The resulting libraries were amplified for 15 cycles and re-purified, with quantity and quality assessed on a Qubit 4 Fluorometer with the Invitrogen Qubit dsDNA HS Assay and an Agilent Tapestation 4150 with the High Sensitivity D1000 assay kit, respectively. The quantified libraries were pooled equimolarly; 50ng of total library mix was used for Adapter Conversion PCR Amplification using the Universal Library Conversion Kit (App-A), Version: V1.0 (MGI Tech Co., Ltd.), according to the manufacturer’s instructions.
The quantity and quality of the purified adapter conversion PCR (AC-PCR) product were evaluated on a Qubit 4 Fluorometer with the Invitrogen Qubit dsDNA HS Assay and on an Agilent Tapestation 4150 with the High Sensitivity D1000 assay kit, respectively. This was followed by DNA denaturation, Single-Strand Circularisation, Enzymatic Digestion, Enzymatic Digestion Product Cleanup and Quality Control steps on 1 pmol of AC-PCR product, according to the Universal Library Conversion Kit (App-A) User Manual (Version: A3).
Finally, 60 fmol of ssCirDNA were used for DNB preparation and sequencing on a DNBSEQ-G400 platform at the BSRC Alexander Fleming Genomics Facility, using a G400 App-A FCS SE100 High-throughput Sequencing Set (MGI Tech Co., Ltd.), according to the manufacturer’s instructions.
Alignment of the FASTQ files was performed against the mouse genome build mm10 using a custom Bash script.[143] Read counting on the 3′ UTRs and differential expression analysis were conducted using the metaseqR2 bioconductor package.[144] Genes corresponding to the following biotypes were excluded: polymorphic_pseudogene, processed_transcript, pseudogene, IG_V_pseudogene, misc_RNA, IG_C_gene, IG_J_gene, IG_D_gene, IG_LV_gene, TR_V_gene, TR_V_pseudogene, TEC, and processed_pseudogene. Gene counts were normalized with DESEQ[145] through metaseqR2. Genes with more than 10 counts in at least 50% of the samples were kept for further processing. For differential expression analysis, the PANDORA algorithm[146] was used to estimate a meta p-value integrating the results from the DESEQ, DESEQ2,[147] edgeR,[148] limma,[149] NBPSeq,[150] and NOISeq[151] algorithms. All additional parameters were set to default values.
Pathway enrichment analysis was performed for the Gene Ontology Biological process (BP) and Molecular Function (MF) terms through GeneCodis 4.[152] The volcano plots, scatterplots, Venn diagrams, and dot plots were generated using the ggplot2 Bioconductor package.

O=C1NC(=O)C(Cc2ccc(OCCC3CCN(C(=O)OCc4cc(Cl)cc(Cl)c4)CC3)cc2)S1 (stereo not shown) [EL244, 3,5-dichlorobenzyl 4-(2-(4-((2,4-dioxothiazolidin-5-yl)methyl)phenoxy)ethyl)piperidine-1-carboxylate]
Prrx2 nFC: 0.30
Prss23 log2 nFC: 0.67
Prss23 nFC: 1.60
Ptprb log2 nFC: 0.67
Ptprb nFC: 1.59
Rad51 log2 nFC: -1.90
Rad51 nFC: 0.27
Rad54l log2 nFC: -1.87
Rad54l nFC: 0.27
Rbm33 log2 nFC: 0.58
Rbm33 nFC: 1.50
Rcan1 log2 nFC: -0.84
Rcan1 nFC: 0.56
Rcn3 log2 nFC: -0.66
Rcn3 nFC: 0.63
Retnla log2 nFC: -2.32
Retnla nFC: 0.20
Rgs16 log2 nFC: -2.59
Rgs16 nFC: 0.17
Rnaset2a log2 nFC: -0.70
Rnaset2a nFC: 0.62
Rps27l log2 nFC: -0.70
Rps27l nFC: 0.62
Rrm1 log2 nFC: -0.81
Rrm1 nFC: 0.57
Rrm2 log2 nFC: -2.56
Rrm2 nFC: 0.17
S100a11 log2 nFC: -0.60
S100a11 nFC: 0.66
Saa3 log2 nFC: -2.75
Saa3 nFC: 0.15
Sash1 log2 nFC: 0.59
Sash1 nFC: 1.50
Scarb1 log2 nFC: -0.72
Scarb1 nFC: 0.61
Scgb3a2 log2 nFC: 0.65
Scgb3a2 nFC: 1.56
Selenop log2 nFC: 0.58
Selenop nFC: 1.50
Sfrp1 log2 nFC: -1.73
Sfrp1 nFC: 0.30
Sftpc log2 nFC: 0.62
Sftpc nFC: 1.54
Sgo2a log2 nFC: -1.68
Sgo2a nFC: 0.31
Sh3pxd2b log2 nFC: -0.78
Sh3pxd2b nFC: 0.58
Shcbp1 log2 nFC: -1.60
Shcbp1 nFC: 0.33
Sirpa log2 nFC: -0.71
Sirpa nFC: 0.61
Ska1 log2 nFC: -2.52
Ska1 nFC: 0.17
Slc7a11 log2 nFC: -1.50
Slc7a11 nFC: 0.35
Slc36a1 log2 nFC: -0.81
Slc36a1 nFC: 0.57
Slc39a1 log2 nFC: -0.63
Slc39a1 nFC: 0.65
Snrnp40 log2 nFC: -0.60
Snrnp40 nFC: 0.66
Snrpd1 log2 nFC: -0.64
Snrpd1 nFC: 0.64
Socs3 log2 nFC: -0.62
Socs3 nFC: 0.65
Sox4 log2 nFC: -0.80
Sox4 nFC: 0.57
Sox9 log2 nFC: -1.42
Sox9 nFC: 0.37
Spag5 log2 nFC: -1.65
Spag5 nFC: 0.32
Sparc log2 nFC: -0.74
Sparc nFC: 0.60
Spc25 log2 nFC: -2.02
Spc25 nFC: 0.25
Spp1 log2 nFC: -1.50
Spp1 nFC: 0.35
Ssc5d log2 nFC: -1.71
Ssc5d nFC: 0.31
Ssh2 log2 nFC: 0.66
Ssh2 nFC: 1.58
Sting1 log2 nFC: -0.77
Sting1 nFC: 0.59
Stmn1 log2 nFC: -0.70
Stmn1 nFC: 0.62
Stxbp6 log2 nFC: 0.64
Stxbp6 nFC: 1.56
Tacc2 log2 nFC: 0.66
Tacc2 nFC: 1.57
Taf10 log2 nFC: -0.59
Taf10 nFC: 0.67
Tceal9 log2 nFC: -0.69
Tceal9 nFC: 0.62
Tcf19 log2 nFC: -1.42
Tcf19 nFC: 0.37
Tfdp1 log2 nFC: -0.74
Tfdp1 nFC: 0.60
Tgfbi log2 nFC: -0.68
Tgfbi nFC: 0.62
Tgif1 log2 nFC: -0.75
Tgif1 nFC: 0.60
Thbs4 log2 nFC: -2.34
Thbs4 nFC: 0.20
Thoc6 log2 nFC: -0.81
Thoc6 nFC: 0.57
Timm44 log2 nFC: -0.72
Timm44 nFC: 0.61
Timp1 log2 nFC: -2.30
Timp1 nFC: 0.20
Tk1 log2 nFC: -2.01
Tk1 nFC: 0.25
Tmem37 log2 nFC: -0.82
Tmem37 nFC: 0.57
Tmem252 log2 nFC: -0.70
Tmem252 nFC: 0.62
Tmsb10 log2 nFC: -0.58
Tmsb10 nFC: 0.67
Tnc log2 nFC: -2.35
Tnc nFC: 0.20
Tnfrsf1b log2 nFC: -0.70
Tnfrsf1b nFC: 0.61
Tnip3 log2 nFC: -1.47
Tnip3 nFC: 0.36
Tns1 log2 nFC: 0.67
Tns1 nFC: 1.59
Top2a log2 nFC: -1.97
Top2a nFC: 0.25
Tpx2 log2 nFC: -2.92
Tpx2 nFC: 0.13
Trem2 log2 nFC: -1.42
Trem2 nFC: 0.37
Trip13 log2 nFC: -1.42
Trip13 nFC: 0.37
Tspan7 log2 nFC: 0.64
Tspan7 nFC: 1.56
Tubb5 log2 nFC: -0.77
Tubb5 nFC: 0.59
Tubb6 log2 nFC: -0.75
Tubb6 nFC: 0.59
Txnip log2 nFC: 0.65
Txnip nFC: 1.56
Tyrobp log2 nFC: -0.69
Tyrobp nFC: 0.62
Ube2c log2 nFC: -1.80
Ube2c nFC: 0.29
Uhrf1 log2 nFC: -1.72
Uhrf1 nFC: 0.30
Utrn log2 nFC: 0.68
Utrn nFC: 1.60
Vangl2 log2 nFC: -0.76
Vangl2 nFC: 0.59
Xcl1 log2 nFC: -1.81
Xcl1 nFC: 0.29
Zfp46 log2 nFC: -0.70
Zfp46 nFC: 0.62
Zranb3 log2 nFC: -1.43
Zranb3 nFC: 0.37
Zwilch log2 nFC: -1.54
Zwilch nFC: 0.34
log2 nFC 1500009L16Rik: -1.23
log2 nFC 2200002D01Rik: -0.88
log2 nFC AA467197: -1.39
log2 nFC Adamts2: -1.00
log2 nFC Areg: -1.03
log2 nFC Arhgap11a: -1.13
log2 nFC Armcx4: -1.32
log2 nFC Asf1b: -1.14
log2 nFC Bcl2a1b: -1.15
log2 nFC Bcl2a1d: -1.29
log2 nFC Bub1b: -1.19
log2 nFC C1qtnf5: -0.87
log2 nFC C1qtnf6: -1.38
log2 nFC Ccdc8: -1.11
log2 nFC Ccl9: -1.37
log2 nFC Ccl17: -0.95
log2 nFC Cd68: -0.99
log2 nFC Cd72: -1.01
log2 nFC Cd248: -1.25
log2 nFC Cd300c2: -0.89
log2 nFC Cdca2: -1.33
log2 nFC Cenpa: -1.31
log2 nFC Cenpw: -1.33
log2 nFC Cercam: -1.37
log2 nFC Ch25h: -0.91
log2 nFC Cilp: -1.39
log2 nFC Clcn5: -0.92
log2 nFC Clec4a2: -1.26
log2 nFC Clec4n: -1.39
log2 nFC Clec5a: -1.14
log2 nFC Clec11a: -1.00
log2 nFC Clec12a: -0.91
log2 nFC Col1a2: -1.41
log2 nFC Col8a1: -1.19
log2 nFC Col12a1: -0.90
log2 nFC Col15a1: -1.10
log2 nFC Col16a1: -0.92
log2 nFC Cotl1: -0.88
log2 nFC Csf2rb2: -0.99
log2 nFC Cstb: -0.95
log2 nFC Ctsk: -0.98
log2 nFC Ctss: -0.92
log2 nFC Cx3cr1: -1.17
log2 nFC Cyp7b1: -1.41
log2 nFC Dbn1: -0.88
log2 nFC Dclk1: -0.86
log2 nFC Diaph3: -1.13
log2 nFC Dio2: -1.39
log2 nFC Dok2: -1.37
log2 nFC Dut: -0.89
log2 nFC Egr2: -0.89
log2 nFC Epha4: -0.89
log2 nFC F10: -1.11
log2 nFC Fam20c: -1.06
log2 nFC Fbn1: -1.03
log2 nFC Fcgr1: -1.30
log2 nFC Fcgr2b: -1.08
log2 nFC Fcrls: -1.35
log2 nFC Fen1: -1.00
log2 nFC Fgf13: -1.40
log2 nFC Fkbp10: -1.25
log2 nFC Fndc1: -1.11
log2 nFC Fscn1: -1.22
log2 nFC Fst: -1.05
log2 nFC Fstl1: -1.21
log2 nFC Gas2l3: -1.32
log2 nFC Gm13889: -0.85
log2 nFC Gm25380: -1.01
log2 nFC Gm42674: -1.18
log2 nFC Gm49339: -0.94
